ChEMBL document CHEMBL1142033, “Synthesis of isonicotinic acid N'-arylidene-N-[2-oxo-2-(4-aryl-piperazin-1-yl)-ethyl]-hydrazides as antituberculosis agents” (2005)
Values after ≈ are worked out from the molar mass of the structure shown.

Experiments:
Format in all cases: functional
[1] = test system: Mycobacterium tuberculosis; assay: Minimum inhibitory concentration against resistant Mycobacterium tuberculosis clinical isolates; N=9
[2] = test system: Mycobacterium tuberculosis; assay: Minimum inhibitory concentration against resistant Mycobacterium tuberculosis clinical isolates; N=9; Range 2-4
[3] = test system: Mycobacterium tuberculosis; assay: Minimum inhibitory concentration against resistant Mycobacterium tuberculosis clinical isolates; N=9; range=4-8
[4] = test system: Mycobacterium tuberculosis; assay: Minimum inhibitory concentration against resistant Mycobacterium tuberculosis clinical isolates; N=9; range=8-16
[5] = test system: Mycobacterium tuberculosis; assay: Minimum inhibitory concentration against resistant Mycobacterium tuberculosis clinical isolates; N=9; Range=8-16
[6] = test system: Mycobacterium tuberculosis; assay: Minimum inhibitory concentration against resistant Mycobacterium tuberculosis clinical isolates; N=9; Range=2-16

## O=C(CN(/N=C/c1ccccc1Cl)C(=O)c1ccncc1)N1CCN(c2ccc(F)cc2)CC1
[1]
  MIC: > 16 µg/mL

## O=C(CN(/N=C/c1cccc(Cl)c1)C(=O)c1ccncc1)N1CCN(c2ccc([N+](=O)[O-])cc2)CC1
[1]
  MIC: > 16 µg/mL

## O=C(CN(/N=C/c1ccc(Cl)cc1Cl)C(=O)c1ccncc1)N1CCN(c2ccc(Cl)cc2)CC1
[1]
  MIC: 16 µg/mL (≈ 30.1 µM)

## O=C(CN(/N=C/c1ccc(Cl)cc1Cl)C(=O)c1ccncc1)N1CCN(c2ccc(F)cc2)CC1
[1]
  MIC: > 16 µg/mL

## O=C(CN(/N=C/c1cccc(Cl)c1)C(=O)c1ccncc1)N1CCN(c2ccc(Cl)cc2)CC1
[1]
  MIC: > 16 µg/mL

## COc1ccccc1N1CCN(C(=O)CN(/N=C/c2ccc(Cl)cc2)C(=O)c2ccncc2)CC1
[1]
  MIC: > 16 µg/mL

## COc1ccccc1N1CCN(C(=O)CN(/N=C/c2ccccc2Cl)C(=O)c2ccncc2)CC1
[1]
  MIC: > 16 µg/mL

## O=C(CN(/N=C/c1ccc(Cl)cc1)C(=O)c1ccncc1)N1CCN(c2ccc(Cl)cc2)CC1
[1]
  MIC: > 16 µg/mL

## O=C(CN(/N=C/c1ccc(Cl)cc1Cl)C(=O)c1ccncc1)N1CCN(c2cccc(C(F)(F)F)c2)CC1
[1]
  MIC: > 16 µg/mL

## O=C(CN(/N=C/c1ccccc1Cl)C(=O)c1ccncc1)N1CCN(c2ccccc2)CC1
[1]
  MIC: > 16 µg/mL

## O=C(CN(/N=C/c1ccccc1Cl)C(=O)c1ccncc1)N1CCN(c2ccc([N+](=O)[O-])cc2)CC1
[1]
  MIC: > 16 µg/mL

## Cc1cccc(N2CCN(C(=O)CN(/N=C/c3ccc(Cl)cc3Cl)C(=O)c3ccncc3)CC2)c1
[1]
  MIC: > 16 µg/mL

## O=C(CN(/N=C/c1ccccc1Cl)C(=O)c1ccncc1)N1CCN(c2cccc(Cl)c2)CC1
[1]
  MIC: > 16 µg/mL

## Cc1cccc(N2CCN(C(=O)CN(/N=C/c3ccccc3Cl)C(=O)c3ccncc3)CC2)c1
[1]
  MIC: > 16 µg/mL

## O=C(CN(/N=C/c1ccc(Cl)cc1)C(=O)c1ccncc1)N1CCN(c2ccc(F)cc2)CC1
[1]
  MIC: > 16 µg/mL

## COc1ccccc1N1CCN(C(=O)CN(/N=C/c2cccc(Cl)c2)C(=O)c2ccncc2)CC1
[1]
  MIC: > 16 µg/mL

## O=C(CN(/N=C/c1ccccc1Cl)C(=O)c1ccncc1)N1CCN(c2cccc(C(F)(F)F)c2)CC1
[1]
  MIC: > 16 µg/mL

## O=C(CN(/N=C/c1ccc(Cl)cc1Cl)C(=O)c1ccncc1)N1CCN(c2cccc(Cl)c2)CC1
[1]
  MIC: > 16 µg/mL

## O=C(CN(/N=C/c1cccc(Cl)c1)C(=O)c1ccncc1)N1CCN(c2ccc(F)cc2)CC1
[1]
  MIC: > 16 µg/mL

## O=C(CN(/N=C/c1cccc(Cl)c1)C(=O)c1ccncc1)N1CCN(c2cccc(Cl)c2)CC1
[1]
  MIC: > 16 µg/mL

## O=C(CN(/N=C/c1ccc(Cl)cc1)C(=O)c1ccncc1)N1CCN(c2ccc([N+](=O)[O-])cc2)CC1
[1]
  MIC: > 16 µg/mL

## COc1ccccc1N1CCN(C(=O)CN(/N=C/c2ccc(Cl)cc2Cl)C(=O)c2ccncc2)CC1
[1]
  MIC: > 16 µg/mL

## O=C(CN(/N=C/c1ccccc1Cl)C(=O)c1ccncc1)N1CCN(c2ccc(Cl)cc2)CC1
[1]
  MIC: > 16 µg/mL

## O=C(CN(/N=C/c1ccc(Cl)cc1Cl)C(=O)c1ccncc1)N1CCN(Cc2ccc3c(c2)OCO3)CC1
[2]
  MIC: 4 µg/mL (≈ 7.21 µM)

## O=C(CN(/N=C/c1ccc(Cl)cc1Cl)C(=O)c1ccncc1)N1CCN(c2ccc([N+](=O)[O-])cc2)CC1
[1]
  MIC: > 16 µg/mL

## O=C(CN(/N=C/c1cccc(Cl)c1)C(=O)c1ccncc1)N1CCN(Cc2ccc3c(c2)OCO3)CC1
[3]
  MIC: 8 µg/mL (≈ 15.4 µM)

## O=C(CN(/N=C/c1ccc(Cl)cc1Cl)C(=O)c1ccncc1)N1CCN(c2ccccc2)CC1
[1]
  MIC: > 16 µg/mL

## O=C(CN(/N=C/c1ccccc1Cl)C(=O)c1ccncc1)N1CCN(Cc2ccc3c(c2)OCO3)CC1
[4]
  MIC: 16 µg/mL (≈ 30.8 µM)

## Cc1cccc(N2CCN(C(=O)CN(/N=C/c3cccc(Cl)c3)C(=O)c3ccncc3)CC2)c1
[1]
  MIC: > 16 µg/mL

## O=C(CN(/N=C/c1ccc(Cl)cc1)C(=O)c1ccncc1)N1CCN(Cc2ccc3c(c2)OCO3)CC1
[3]
  MIC: 8 µg/mL (≈ 15.4 µM)

## O=C(CN(/N=C/c1ccccc1Cl)C(=O)c1ccncc1)N1CCN(c2cccc(Cl)c2Cl)CC1
[1]
  MIC: > 16 µg/mL

## O=C(CN(/N=C/c1cccc(Cl)c1)C(=O)c1ccncc1)N1CCN(c2ccccc2)CC1
[1]
  MIC: > 16 µg/mL

## NNC(=O)c1ccncc1 [ISONIAZID]
[5]
  MIC: 16 µg/mL (≈ 117 µM)

## CO[C@H]1/C=C/O[C@@]2(C)Oc3c(C)c(O)c4c(O)c(c(/C=N/N5CCN(C)CC5)c(O)c4c3C2=O)NC(=O)/C(C)=C\C=C\[C@H](C)[C@H](O)[C@@H](C)[C@@H](O)[C@@H](C)[C@H](OC(C)=O)[C@@H]1C [RIFAMPIN]
[6]
  MIC: 16 µg/mL (≈ 19.4 µM)
